Results: US10300155B2, “Alpha-synuclein ligands” (Washington University, priority 2015, dated 2019)
Values joined by “and” are separate entries in the source; they are usually repeats but may differ in a detail not shown here. Equal entries are not always repeated.

Tests used:
Aβ1-42 fibrils = target: T1, Aβ1-42 fibrils (Homo sapiens, UniProt P05067); assay: Radioligand binding assay with Aβ1-42 fibrils (Table 8)
T1 construct: Synthetic Aβ42 peptide (1 mg) (Bachem, Torrance, Calif.); purchased Bachem, Torrance, Calif; host or cells: synthetic peptide
T1 sequence (P05067 672-713 limits assumed): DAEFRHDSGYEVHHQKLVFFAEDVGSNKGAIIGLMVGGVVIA
Protocol: Synthetic Aβ42 peptide (1 mg) (Bachem, Torrance, Calif.) was first dissolved in 50 μl DMSO. An additional 925 μl of mQ-H2O was added. Finally, 25 μl 1M Tris-HCl pH 7.6 was added to bring the final peptide concentration to 222 μM (1 mg/ml) [16]. The dissolved peptide was incubated for 30 h at 37° C. with shaking at 1000 rpm in an Eppendorf Thermomixer. Fibril formation was confirmed by ThioT fluorescence. To determine the concentration of fibrils, the fibril reaction mix was centrifuged at 15,000×g for 15 min to separate fibrils from monomer. The concentration of Aβ monomer in the supernatant was determined in a BCA protein assay using a BSA standard curve that contained DMSO at a percentage equivalent to the samples. […]
A fixed concentration (1 μM) of α-syn, Aβ, or tau fibrils were incubated for 2 h at 37° C. with increasing concentrations of ThioT in 30 mM Tris-HCl pH 7.4, 0.1% BSA in a reaction volume of 150 μl. Nonspecific binding was determined in a duplicate set of binding reactions containing the same concentration of ThioT with no fibrils. Fluorescence was determined in a Biotek plate reader using a 440/30 excitation filter and a 485/20 emission filter. […] The dissociation constant (Kd) and the maximal number of binding sites (Bmax) values were determined by fitting the data to the equation Y=Bmax*X/(X+Kd) by nonlinear regression using Graphpad Prism software (version 4.0).

tau fibrils [1] = target: T2, tau fibrils (Homo sapiens, UniProt P10636); assay: Radioligand binding assay with tau fibrils (Table 8); design: made in house; host or cells: E. coli BL21(DE3)RIL
Target sequence in this assay (P10636 560-692): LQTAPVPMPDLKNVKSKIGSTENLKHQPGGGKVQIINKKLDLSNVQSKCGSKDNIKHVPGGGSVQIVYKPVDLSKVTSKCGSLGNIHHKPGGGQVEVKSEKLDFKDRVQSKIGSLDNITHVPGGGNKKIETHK

AD Tissue = assay: Radioligand saturation binding, AD postmortem brain tissue; design: species or system human; details: brain tissue homogenate
Control Tissue = assay: Radioligand saturation binding, control postmortem brain tissue; design: species or system human; details: brain tissue homogenate
Text: (§1) Brain tissue samples were selected from an autopsy case series of patients evaluated for parkinsonism by movement disorders specialists at the Movement Disorders Center of Washington University School of Medicine in St. Louis. The clinical diagnosis of idiopathic PD was based on modified United Kingdom Parkinson's Disease Society Brain Bank clinical diagnostic criteria with clear clinical response to levodopa [Hughes, A. J., et al, “Accuracy of clinical diagnosis of idiopathic Parkinson's disease: a clinico-pathological study of 100 cases,” 1992, J. Neurol. Neurosurg. Psychiatry, 55:181-184]. Dementia was determined by a movement disorders specialist based on clinical assessment of cognitive dysfunction sufficiently severe to impair activities of daily living, with further evaluation of cognitive impairment using the AD8 and Mini-Mental Status Exam (MMSE) [Galvin, J. E., et al., “The AD8: a brief informant interview to detect dementia,” 2005, Neurology 65:559-564; Folstein, M. F., et al., ““Mini-mental state”. A practical method for grading the cognitive state of patients for the clinician,” 1975, J. Psychiatr Res, 12:189-198]. LB stage was assessed at autopsy using a PD staging scale (range: 0, 1-6) [Braak, H., et al., “Stages in the development of Parkinson's disease-related pathology,” 2004, Cell Tissue Res., 318:121-134]. PD cases were selected based on a clinical diagnosis of PD plus dementia, Braak LB stage 5-6 pathology, and the absence of significant Aβ or tau pathology determined by immunohistochemistry. Control cases were selected based on the absence of α-synuclein, Aβ and tau pathology. Samples were used from both male and female subjects.
(§2) Grey matter was isolated from frozen postmortem frontal cortex tissue by dissection with a scalpel. To prepare insoluble fractions, dissected tissue was sequentially homogenized in four buffers (3 ml/g wet weight of tissue) with glass Dounce tissue grinders (Kimble): 1) High salt (HS) buffer: 50 mM Tris-HCl pH 7.5, 750 mM NaCl, 5 mM EDTA; 2) HS buffer with 1% Triton X-100; 3) HS buffer with 1% Triton X-100 and 1 M sucrose; and 4) phosphate buffered saline (PBS). Homogenates were centrifuged at 100,000×g after each homogenization step and the pellet was resuspended and homogenized in the next buffer in the sequence. For comparison in initial binding studies, crude tissue homogenates were also prepared by homogenization of tissue in only PBS. […]
(§3) Saturation binding assays combine binding substrate and varying radioligand concentrations, with or without the addition of a high concentration (50-100 times the estimated Kd) of a competitor compound to determine nonspecific binding. […] Specific binding is determined by subtracting nonspecific binding from total binding. […]

α-synuclein fibrils [2] = target: T3, α-synuclein fibrils (Homo sapiens, UniProt P37840); assay: Radioligand binding assay with α-synuclein fibrils (Table 8)
T3 construct: made in house; host or cells: E. coli BL21(DE3)RIL

PD Tissue = assay: Radioligand saturation binding, PD postmortem brain tissue; design: species or system human; details: brain tissue homogenate
Text: as §1, §2, §3

α-synuclein fibrils [3] = target: T3, α-synuclein fibrils; assay: Thioflavin T competition assay (Example 130, Table 9), α-synuclein fibrils; type: binding
Protocol: Freshly transformed BL21 colonies were inoculated into 2 L baffled flasks containing 250 ml sterilized TB (1.2% bactotryptone, 2.4% yeast extract, 0.4% glycerol, 0.17 M KH2PO4, 0.72 M K2HPO4) with 50 μg/ml ampicillin, and incubated overnight at 37° C. with shaking.
(§4) Competition assays used a fixed concentration of α-syn, Aβ, or tau fibrils (1 μM), consisting of 3 μM, 50 nM and 4 μM of ThioflavinT respectively. […] To optimize the determination of selectivity, assays for all three fibril species were set up in parallel using a common set of intermediate compound dilutions for each analog. Reactions were incubated at room temperature for 1.5 h before quantifying bound ligand as described above for the saturation binding assay. […] All data points were performed in triplicate. Nonspecific fluorescence was measured in parallel reactions containing ThioT plus each concentration of competitor but no fibrils, and these measurements were subtracted from the reactions with fibrils to yield fibril-specific fluorescence. Data were analyzed using Graphpad. Prism software (version 4.0) to obtain EC50 values by fitting the data to the equation Y=bottom+(top-bottom)/(1+10^(x−log EC50)).

Aβ fibrils [4] = target: T4, Aβ fibrils (Homo sapiens, UniProt P05067); assay: Thioflavin T competition assay (Example 130, Table 9), Aβ fibrils; type: binding; design: Synthetic Aβ42 peptide (1 mg) (Bachem, Torrance, Calif.); purchased Bachem, Torrance, Calif; host or cells: synthetic peptide
T4 sequence (P05067 672-713 limits assumed): as the sequence (P05067 672-713 limits assumed) above
Protocol: An additional 925 μl of mQ-H2O was added. […] Fibril formation was confirmed by ThioT fluorescence.
as §4

tau fibrils [5] = target: T2, tau fibrils; assay: Thioflavin T competition assay (Example 130, Table 9), tau fibrils; type: binding; design: made in house; host or cells: E. coli BL21(DE3)RIL
Protocol: Recombinant tau protein was produced in E. coli.
as §4
Target sequence in this assay (P10636 560-692): as the sequence (P10636 560-692) above

α-synuclein fibrils [6] = target: T3, α-synuclein fibrils; assay: ThT saturation binding to α-synuclein fibrils (Example 116); details: saturation curve
Protocol: The mixture was incubated at room temperature for 1 hour on the shaking plate. The reaction plate was scanned by the excitation wavelength range from 430 to 465 nm. The maximum excitation wavelength (λex) was determined according to the fluorescent intensity-excitation wavelength curve. At (λex), the emission wavelength was scanned to get maximum emission wavelength (λem).
The mixture was incubated at room temperature for 1 hour on the shaking plate. The fluorescent intensity for each cell was measured by the fluorescence reader at λex and λem.

tau fibrils [7] = target: T2, tau fibrils; assay: ThT competitive assay for tau fibrils (Table 3); type: binding; design: made in house; host or cells: E. coli; details: for EC50: tau fibrils
Protocol: Tau fibril recombinant protein was produced in E. coli. Additional preparation was performed in a similar fashion to Example 115.
Target sequence in this assay (P10636 560-692 limits assumed): as the sequence (P10636 560-692) above

Aβ fibrils [8] = target: T4, Aβ fibrils; assay: ThT competitive assay for Aβ fibrils (Table 2); type: binding; design: made in house; host or cells: E. coli; details: for EC50: Aβ fibrils
Protocol: […] recombinant protein was produced in E. coli. Additional preparation was performed in a similar fashion to Example 115. […] The inhibitor that binds with highest affinity to Aβ fibrils has the lowest dissociation constant (Ki).

α-synuclein fibrils [9] = target: T3, α-synuclein fibrils; assay: ThT competitive assay for α-synuclein fibrils (Table 1); type: binding; details: for EC50: α-synuclein fibrils
In short: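 Competition against ThT binding to recombinant (E. coli) human α-synuclein fibrils, pelleted from a 72 hour fibril reaction and quantified by BCA. Mixtures incubated 60 minutes at room temperature with shaking; ThT fluorescence read. Ki derived from EC50 via Cheng-Prusoff using the ThT saturation Kd.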

## COc1cc(/C=C/c2ccc3cc(OCC[18F])ccc3n2)ccn1 [[^18F]TZ-36-148]
Aβ1-42 fibrils
  Aβ1-42 fibrils Bmax (pmol/nmol): 28 pmol/nmol
Tau fibrils [1]
  Tau fibrils Bmax (pmol/nmol): 58 pmol/nmol
AD Tissue
  AD Tissue Bmax (pmol/nmol): 12945 pmol/nmol
Control Tissue
  Control Tissue Bmax (pmol/nmol): 604 pmol/nmol
α-synuclein fibrils [2]
  α-synuclein Bmax (pmol/nmol): 29 pmol/nmol
PD Tissue
  PD Tissue Bmax (pmol/nmol): 1510 pmol/nmol

## COc1cc(/C=C/c2ccc3cc(OCCF)ccc3n2)ccn1 [[^18F]TZ-36-148]
Aβ1-42 fibrils
  Kd: 98 nM
Tau fibrils [1]
  Kd: 51 nM
α-synuclein fibrils [3]; average, read-out: α-synuclein EC50 (avg)
  EC50: 46.8 nM
α-synuclein fibrils [3]; average, read-out: α-synuclein Ki (avg)
  Ki: 18 nM
α-synuclein fibrils [3]; individual determinations, read-out: α-synuclein EC50
  EC50: 44.5 nM and 49 nM
α-synuclein fibrils [3]; individual determinations, read-out: α-synuclein Ki
  Ki: 17 nM and 19 nM
Aβ fibrils [4]; average, read-out: Aβ-fibrils EC50 (avg)
  EC50: 448 nM
Aβ fibrils [4]; average, read-out: Aβ-fibrils Ki (avg)
  Ki: 168 nM
Aβ fibrils [4]; individual determinations, read-out: Aβ-fibrils EC50
  EC50: 435 nM and 462 nM
Aβ fibrils [4]; individual determinations, read-out: Aβ-fibrils Ki
  Ki: 163 nM and 173 nM
AD Tissue
  Kd: 83 nM
Control Tissue
  Kd: 477 nM
α-synuclein fibrils [2]
  Kd: 90 nM
PD Tissue
  Kd: 167 nM
Tau fibrils [5]; average, read-out: Tau fibrils EC50 (avg)
  EC50: 278 nM
Tau fibrils [5]; individual determinations
  Ki: 124 nM and 102 nM
Tau fibrils [5]; individual determinations, read-out: Tau fibrils EC50
  EC50: 305 nM and 251 nM

## Cc1ccc2c(c1)sc(-c1ccc(N(C)C)cc1)[n+]2C [ThT, Thioflavin T]
α-synuclein fibrils [6]
  Bmax for ThioT binding to fibrils: 5672 afu

## COc1ccc2nc(/C=C/c3ccnc(OC)c3)ccc2c1 [[^11C]TZ-36-28-2T]
AD Tissue
  AD Tissue Bmax (pmol/nmol): 4316 pmol/nmol
Control Tissue
  Control Tissue Bmax (pmol/nmol): 1081 pmol/nmol
  Kd: 158 nM
α-synuclein fibrils [2]
  α-synuclein Bmax (pmol/nmol): 51 pmol/nmol
PD Tissue
  Kd: 55 nM
  PD Tissue Bmax (pmol/nmol): 367 pmol/nmol

## COc1ccc2nc(/C=C/c3ccnc(OC)c3)ccc2c1 [TZ-36-28-2T]
Tau fibrils [7]; average, read-out: Ki (nM) Tau (avg)
  Ki: 34 nM
Tau fibrils [7]; average, read-out: EC50m (nM) EC50 (avg)
  EC50: 82 nM
Tau fibrils [7]; individual determinations, read-out: EC50m (nM) EC50
  EC50: 82 nM
Aβ fibrils [8]; average, read-out: EC50(nM) EC50 (avg)
  EC50: 715 nM
Aβ fibrils [8]; individual determinations, read-out: EC50(nM) EC50
  EC50: 715 nM
Aβ fibrils [8]; average, read-out: Ki (nM) Aβ (avg)
  Ki: 268 nM
Aβ fibrils [8]; individual determinations, read-out: Ki (nM) Aβ
  Ki: 268 nM
AD Tissue
  Kd: 13 nM
α-synuclein fibrils [2]
  Kd: 30 nM
α-synuclein fibrils [9]; average, read-out: Ki (nM) α-syn (avg)
  Ki: 51.8 nM
α-synuclein fibrils [9]; individual determinations, read-out: Ki (nM) α-syn
  Ki: 37 nM and 40 nM and 87 nM and 66 nM and 29 nM
α-synuclein fibrils [9]; average, read-out: EC50 (nM) EC50 (avg)
  EC50: 136 nM
α-synuclein fibrils [9]; individual determinations, read-out: EC50 (nM) EC50
  EC50: 98 nM and 105 nM and 226 nM and 174 nM and 76 nM
